Experiments:
[1] = set-up: species or system healthy male adults; settings: in vivo
Protocol: A nasally administrable composition in powdery form was prepared by formulating salmon calcitonin as a physiologically active peptide at the rate of 200 MRC (IU) per 25 mg with hydroxyapatite as a carrier having a mean particle size ranging from 40 to 45 μm.
(§1) The resulting composition was nasally administered once at the dose of 25 mg to six healthy male adults and the blood (2.5 ml) was collected from each of the tested adults prior to administration and then at 5, 10, 15, 20, 30, 45, 60, 90, 120 and 180 minutes after administration. The concentration of the salmon calcitonin in each of the collected blood samples was assayed with a standard RIA assay kit.

[2] = set-up: species or system healthy male adults; settings: in vivo; remark: listed apart in the source
Protocol: A nasally administrable composition in powdery form was prepared by formulating salmon calcitonin as a physiologically active peptide at the rate of 200 MRC (IU) per 25 mg with hydroxyapatite as a carrier.
as §1

blood sugar = test: Average fall of the blood sugar in rabbits after insulin administration; type: in vivo, New Zealand rabbits; settings: S.C., 2 IU/rabbit
Protocol: The resulting composition was nasally administered once to six male New Zealand rabbits. The average fall of the blood sugar was measured and represented in percentage (%) at 0, 15, 30, 60, 120 and 180 minutes after administration. For comparison, 2 (IU)/rabbit of insulin was administered subcutaneously to six male New Zealand rabbits and the average fall of the blood sugar was measured and represented in […] (%) at 0, 60, 120, 240 and 360 minutes after administration.

| Substance | absorption of calcitonin (in words) [1] | absorption of calcitonin through the nasal cavity (in words) [2] | Average fall of the blood sugar (blood sugar; 0 min) [%] | Average fall of the blood sugar (blood sugar; 60 min) [%] | Average fall of the blood sugar (blood sugar; 120 min) [%] | Average fall of the blood sugar (blood sugar; 240 min) [%] | Average fall of the blood sugar (blood sugar; 360 min) [%] |
| --- | --- | --- | --- | --- | --- | --- | --- |
| hydroxyapatite | effective to attain better absorption of calcitonin | effective to attain better absorption of calcitonin through the nasal cavity |  |  |  |  |  |
| insulin [Comparison] |  |  | 100 | 57 | 56 | 84 | 94 |

Source: patent US5574006A, “Nasally administrable peptide compositions on hydroxyapatite carriers” (Dott Research Laboratory, priority 1993, dated 1996)
